Values quoted from earlier work, collected in PMC2192333 (The Journal of Experimental Medicine, 1996).
Each block holds one substance with its values, some of them ahead of it.

Experiments:
C3bi = conditions: mutation in CD11b

binding to C3bi (C3bi): abohshed binding to C3bi
Substance: Asp-140GlySer to AlaGlyAla: mutation of the closely related integrin CD11b

binding of murine LFA-1 to human ICAM-1 (human ICAM-1): does not bind human ICAM-1
Substance: murine LFA-1: murine leukocyte integrin LFA-1

binding to ICAM-3 (ICAM-3): high affinity
Substance: CD11d/CD18: recently described fourth member of the CD18 integrins
